We go through one compound from patent US20260102377A1, “COMPOSITIONS AND METHODS FOR TREATING MYASTHENIA GRAVIS” (priority 2022, published 2026).

Experiment [1] has as its system EAMG muscle fibres. Briefly: Intracellular action potential measurement during nerve stimulation. Type of experiment: cell-based, rat. The following applies: 20 μM NMD670; 30 Hz nerve stimulation; EAMG muscle fibres (n=110). The source says: (§1) To allow for measurements of electrophysiological properties at the cellular level and for measurements of force, it was necessary to isolate nerve-muscle preparations from the rats. To this end, animals were sacrificed, and muscles were dissected out with 1 to 3 cm of intact nerve. The nerve-muscle preparations were then transferred to the organ baths used for the particular experiments (see below) and perfused with Normal Krebs-Ringer (NKR) solution, consisting of (in mM); 122 NaCl, 25 NaHCO3, 2.8 KCl, 1.2 KH2PO4, 1.2 MgSO4 1.27 CaCl2 and 5 D-glucose. This NKR solution was continuously gassed with a mixture of 95% oxygen and 5% CO2, to maintain a pH of approx. 7.4. In some experiments methyl-sulphate was used to replace Cl^− in the solution. All chemicals used were of analytical grade.

For experiment [2], the system named is EAMG rats. The experiment is described as follows: 14-day dosing in EAMG animals: bodyweight and study completion. Type of experiment: in vivo, rat. The protocol: To induce EAMG, 250 μL of emulsion of Complete Freund's Adjuvant, consisting of heat-inactivated Mycobacterium tuberculosis H37Ra in non-metabolizable oils, together with Phosphate-Buffered Saline (PBS) and 80 μg of the extracellular α-domain peptide fragment of the human nicotinic acetylcholine receptor (antigen) was injected subcutaneously in seven-week-old, anaesthetized Lewis rats. The disease-inducing antigen was supplied by the Hellenic Pasteur institute3. The emulsion was deposited at the tail base, left hindleg, and right foreleg. After injection, animals were allowed to recover and returned to their home cage maintained in ventilated racks under controlled temperature (20 to 22° C.) and humidity (˜55%) control, under a 12-h light/12-h dark cycle with food and water provided ad libitum. The animals had pathogen free status and the housing and changing system was designed to assure that the pathogen free status was preserved during the study. The EAMG rats were observed, weighed, and scored for MG symptoms weekly until symptoms of MG developed, whereafter animals were observed daily.
Sixteen (16) rats with an EAMG clinical score of 2 were allocated to the study and stratified to one of the two treatment groups (vehicle vs NMD670, 8 rats per group). […] Grip strength and Rotarod performance were measured prior to treatment (day 0) and on days 1, 4, 7, 9, 11 and 14 during treatment. […]

Experiment [3] concerns soleus, EDL and diaphragm muscles from EAMG rats. The experiment is described as follows: Force measurement in isolated intact nerve-muscle preparations. Also on record: species or system rat. The following applies: for Relative force area after addition of NMD670 (Initial area = 100): NMD670 between 20 and 40 μM.
From the text: as §1
To determine whether enhanced neuromuscular transmission with CIC-1 inhibition could restore force in whole muscles from EAMG animals, experiments were conducted with soleus, extensor digitorum longus, and diaphragm muscles from EAMG rats. All muscles were mounted on force transducers (FORT 250, WPI instruments DE) in pre-warmed chambers (30° C.) containing 20 mL NKR each. The acquisition program Signal (version 6.4, Cambridge Electronics Design Ltd, Cambridge, UK) was used to control stimulation, delivered by an isolated stimulator (isostim 01D NPI electronics, DE) and for recording data via an analogue-digital converter (Micro 1401 Cambridge Electronics Design Ltd, Cambridge, UK). After equilibration in chambers, muscles were stretched to their optimal length and stimulated at a range of frequencies. For the duration of the experiment muscles were stimulated both directly and via the nerve at 12 V. This was accomplished by changing the stimulation pulse duration between 0.02 ms for nerve stimulation and 0.2 ms for direct stimulation of the muscle fibres. Muscles were stimulated every 10 min at 60 Hz for 1 second, either directly or via the nerve. To test for effect of NMD670 on force generation, different concentrations of NMD670 were added directly to the experimental chamber of the individual muscles.

Experiment [4] has as its system EAMG rats. Briefly: Force and EMG in sedated EAMG animals (triceps surae, sciatic nerve stimulation). Type of experiment: in vivo, rat.
Experiment [5] has as its system patients with myasthenia gravis. The experiment is described as follows: Phase IIA clinical trial (Part C): repetitive nerve stimulation (CMAP decrement, nasalis muscle). Type of experiment: in vivo, human. The following applies: for RNS decrement responders / Patients with RNS decrement at baseline who recovered (less than 5% decrement): 3- and 5-hour measurements; for RNS decrement responders: placebo 0%. The protocol:
For each subject, the study consisted of three study periods during which subjects received either a single dose of NMD670 400 mg, NMD670 1200 mg, or placebo with a 7-day washout period between visits. On these study visits, subjects were asked to refrain from their regular dose of pyridostigmine (if applicable) from 14 h before dosing until after the last pharmacodynamic measurement on Day 1 (see Table 13: Visit and Assessment Schedule). The cross-over design allowed intra-individual comparison of drug effects versus placebo (see FIG. 16). A balanced design was applied to control for first-order carry-over effects.
Part C was a double-blinded, placebo-controlled, three-way cross-over comparison of two single oral doses of NMD670 in men and women with stable symptomatic myasthenia gravis. 12 patients were enrolled. For each subject, the study consisted of three study periods during which subjects received either a single dose of NMD670 or placebo. On these study visits, subjects were asked to refrain from their regular dose of pyridostigmine (if applicable) for 14 hours before dosing. Single doses were administered in randomized order (400 mg free acid, 1200 mg free acid, or placebo p.o.), with a 7-day washout period between visits (FIG. 16). NMD670/placebo was administered with 240 ml of still water.
RNS uses trains of 10 supramaximal electrical stimuli at 3 and 5 Hz using a Medelec Synergy 11.0. The optimal stimulation site on the skin is identified using inframaximal stimuli, after which the limit of supramaximal intensity is established. The working intensity is about 130% of that threshold. RNS is performed on the facial nerve/nasalis muscle combination. Techniques have been described previously (Niks et al., Muscle & Nerve, 2003, 28(2):236-238; Ruys-Van Oeyen et al., Muscle & Nerve, 2002, 26(2):279-282; Schumm et al., Muscle & Nerve, 1984, 7(2):147-151).
Compound Muscle Action Potentials (CMAPs) were recorded from the nasalis muscle in response to nerve stimulation. Decrement refers to decline in CMAP amplitude during repeated stimulation and indicates neuromuscular transmission failure.

Entries after “also recorded” stand apart in the source; their conditions may differ.

On to `C[C@H](Oc1ccc(Br)cc1-c1ccon1)C(=O)O` [NMD670, (2S)-2-[4-bromo-2-(1,2-oxazol-3-yl)phenoxy]propanoic acid], for which the “Success of repeated action potential excitations” value in experiment [1] is given as “improved markedly; also recorded: AP excitation failures were less common”. In experiment [2] (14-day chronic dosing, EAMG animals, 20 mg/kg twice daily (b36 prints 40 mg/kg BID)), the “Loss of body weight versus vehicle” value is reported as “attenuation in loss of body weight”. Besides, the “Treated rats that completed the study” value in experiment [2] (14-day study, early termination when body weight below 80% of maximum, vehicle 3 out of 8) is 6 of the 8. In addition, the “Force from isolated soleus muscle” value in experiment [3] (20 μM NMD670, nerve-stimulated at 60 Hz, EAMG rats) is given as “could be restored”. Moreover, the “Relative force area after addition of NMD670 (Initial area = 100)” value in experiment [3] (Diaphragm (12) from EAMG rats) was 120.2 ± 5.04; in experiment [3] (EDL (14) from EAMG rats), 235.1 ± 25.0; in experiment [3] (Soleus (14) from EAMG rats), 199 ± 17.1. Also, the “Force generation in isolated soleus, EDL and diaphragm muscles compared with muscles from healthy animals” value in experiment [3] (NMD670 20 μM or between 20 and 40 μM, EAMG animals) is “restored force generation”. Moreover, in experiment [4] (EAMG rat score 2, 40 mg per kg, 20 minutes after administration, 80 Hz for 1 second), the “Nerve-stimulated force and EMG amplitude in triceps surae” value was “rapid restoration of force and EMG amplitude”. The “Restoration of muscle force / EMG” value in experiment [4] (EAMG rats, single per oral doses from 2 to 120 mg/kg) is “rapid and dose-dependent restoration of muscle force; also recorded: rapid and dose-dependent restoration of both EMG and force”. The “Treatment effect on CMAP decrement (continuous measurements)” value in experiment [5] (400 mg and 1200 mg single doses, nasalis muscle) is “No significant treatment effects and no trends of dose-dependent effects”. The RNS decrement responders in experiment [5] (400 mg arm) stood at 83%; in experiment [5] (1200 mg arm), 33%. Also, the “Patients with RNS decrement at baseline who recovered (less than 5% decrement)” value in experiment [5] (400 mg arm, of 6 subjects with decrement at baseline) was found to be 5 subjects; in experiment [5] (1200 mg arm, of 3 subjects with decrement at baseline) it was 1 subjects.
